Among the data in PubChem BioAssay (NCI) are TGI and GI50 values, retold here.

Among the test systems are RPMI-8226 leukemia; SF-539 CNS; NCI-H226 lung; NCI-H460 lung; HT29 colon; SK-MEL-28 melanoma; OVCAR-8 ovarian; A549 NSCLC; UACC-62 melanoma; HL-60(TB) leukemia.
What all share (test): NCI tumour cell line growth inhibition, 48 h

The structures appear in SMILES notation.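 Compound exposure: 48 hours, 5 concentrations, 96-well plates. GI50 marks 50% less growth. Definition used: TGI = concentration required for complete inhibition of growth.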 A value given as a limit tells only on which side of the number the result lay.

As to `COC(=O)C1=C(c2ccc(OC)c(OC)c2)OC(c2cc(OC)c(OC)c(OC)c2)C1` (configuration not stated), the TGI in the assay on RPMI-8226 leukemia, with SF-539 CNS, with NCI-H226 lung, in the assay with NCI-H460 lung, in the assay on HT29 colon and in the assay on SK-MEL-28 melanoma was above 100 µM in each case. Moreover, the TGI in the assay with OVCAR-8 ovarian and with A549 NSCLC was above 100 µM throughout.
In the case of `NC1=NC(c2ccc(Cl)cc2)N(c2ccc(S(N)(=O)=O)cc2)C(N)=N1` (configuration not stated), the TGI in the assay on UACC-62 melanoma, in the assay with RPMI-8226 leukemia, with SF-539 CNS, in the assay with NCI-H226 lung, with NCI-H460 lung and with HT29 colon was above 100 µM each time. Moreover, the TGI in the assay with SK-MEL-28 melanoma, in the assay on OVCAR-8 ovarian and in the assay with A549 NSCLC was above 100 µM throughout.
For the compound `COc1ccc2c(C3(c4cn(C)c5cc(OC)ccc45)C(=O)Nc4ccc(Cl)cc43)cn(C)c2c1`, the GI50 in the assay on UACC-62 melanoma was 3.49 µM; with RPMI-8226 leukemia, 3.94 µM; in the assay on SF-539 CNS it was 9.19 µM; in the assay with NCI-H226 lung, 5.44 µM; with NCI-H460 lung, 3.29 µM; in the assay on HT29 colon it was 3.22 µM. Also, the GI50 is 4.71 µM with SK-MEL-28 melanoma and 3.09 µM in the assay with OVCAR-8 ovarian. Moreover, the TGI is 25 µM in the assay on UACC-62 melanoma; above 100 µM in the assay on RPMI-8226 leukemia; above 100 µM in the assay with SF-539 CNS; above 100 µM with NCI-H226 lung; 11.7 µM with NCI-H460 lung; 24 µM in the assay with HT29 colon. In addition, the TGI in the assay on SK-MEL-28 melanoma and in the assay on OVCAR-8 ovarian was above 100 µM each time.
`Cc1nnc2c3nnc(C)n3c3ccccc3n12`: the TGI in the assay with UACC-62 melanoma, in the assay with RPMI-8226 leukemia, in the assay on SF-539 CNS, with NCI-H226 lung, with NCI-H460 lung and with HT29 colon was above 100 µM each time. Besides, the TGI with SK-MEL-28 melanoma, in the assay on OVCAR-8 ovarian and in the assay with A549 NSCLC was above 100 µM each time.
In the case of `COc1ccc(S(=O)(=O)NC2=NCCN2C(=S)SN2CCn3c2nsc3=S)cc1`, the GI50 with UACC-62 melanoma is 12.2 µM; in the assay on RPMI-8226 leukemia, 14 µM; in the assay on NCI-H226 lung, 15.6 µM; in the assay with NCI-H460 lung, 17.1 µM; with HT29 colon, 32.4 µM; in the assay with SK-MEL-28 melanoma, 21.1 µM. Further, the GI50 with OVCAR-8 ovarian is 27.3 µM; in the assay on A549 NSCLC it was 23.4 µM. For the same compound, the TGI with UACC-62 melanoma is 27.4 µM; in the assay with RPMI-8226 leukemia, 63.1 µM; in the assay with NCI-H226 lung, 33.2 µM; with NCI-H460 lung, 44.2 µM; with HT29 colon it was above 100 µM; with SK-MEL-28 melanoma it was 65.1 µM. Moreover, the results for the TGI in the assay on OVCAR-8 ovarian and in the assay with A549 NSCLC were above 100 µM and 79.4 µM, respectively.
For the compound `CC(=O)OC1=CC2=CC[C@H]3[C@@H]4CCC(=O)[C@@]4(C)CC(=O)[C@]3(S)[C@@]2(C)CC1`, the TGI is 93.1 µM with UACC-62 melanoma; 53.5 µM in the assay on RPMI-8226 leukemia; 43.1 µM in the assay with SF-539 CNS; 69.8 µM with NCI-H460 lung; above 100 µM in the assay on HT29 colon; above 100 µM with SK-MEL-28 melanoma. Further, the TGI with OVCAR-8 ovarian and with A549 NSCLC was above 100 µM in each case.
Take `Nc1cc(O)ccc1N=Nc1ccc(-c2nc3ccccc3[nH]2)cc1`: the GI50 is 17.1 µM with UACC-62 melanoma; 30.2 µM in the assay with RPMI-8226 leukemia; above 100 µM with NCI-H226 lung; 10.2 µM with NCI-H460 lung; 44.6 µM with HL-60(TB) leukemia; 34.8 µM in the assay on SK-MEL-28 melanoma. Moreover, the GI50 with OVCAR-8 ovarian was 10.7 µM; with A549 NSCLC, above 100 µM. Moreover, the TGI in the assay on UACC-62 melanoma is above 100 µM; with RPMI-8226 leukemia it was 94.6 µM; in the assay with NCI-H226 lung it was above 100 µM; with NCI-H460 lung it was 35.8 µM; with HL-60(TB) leukemia, above 100 µM; in the assay with SK-MEL-28 melanoma it was above 100 µM. In addition, the TGI with OVCAR-8 ovarian is 52.5 µM; in the assay on A549 NSCLC it was above 100 µM.
Regarding `C=C1C(=O)O[C@H]2[C@H]1CC/C(COC(=O)CCSCCC(=O)OC/C1=C/CC[C@@]3(C)O[C@H]3[C@H]3OC(=O)C(=C)[C@@H]3CC1)=C\CC[C@@]1(C)O[C@@H]21`, the GI50 in the assay on UACC-62 melanoma is 1.7 µM; with RPMI-8226 leukemia, 0.383 µM; with SF-539 CNS, 1.2 µM; with NCI-H226 lung it was 3 µM; in the assay with NCI-H460 lung it was 1.86 µM; in the assay with HT29 colon, 0.496 µM. Also, the GI50 is 1.39 µM with SK-MEL-28 melanoma, 1.57 µM in the assay on OVCAR-8 ovarian and 2.54 µM in the assay with A549 NSCLC. In addition, the TGI in the assay with UACC-62 melanoma is 3.61 µM; in the assay on RPMI-8226 leukemia, 1.83 µM; in the assay on SF-539 CNS it was 2.59 µM; in the assay with NCI-H226 lung, 8.96 µM; with NCI-H460 lung, 4.21 µM; with HT29 colon, 1.73 µM. The TGI was found to be 2.86 µM in the assay with SK-MEL-28 melanoma, 3.96 µM in the assay on OVCAR-8 ovarian and 7.56 µM in the assay with A549 NSCLC.
For `Clc1ccc(-c2csc(Nc3cccc(-c4csc(-c5ccccc5)n4)c3)n2)cc1`, the GI50 was 6.24 µM in the assay on UACC-62 melanoma; 19.2 µM with RPMI-8226 leukemia; 10.5 µM in the assay on NCI-H460 lung; 17.2 µM with HL-60(TB) leukemia; 5.93 µM in the assay on SK-MEL-28 melanoma; 14.6 µM in the assay on OVCAR-8 ovarian. In addition, the GI50 with A549 NSCLC is 15.2 µM. Besides, the TGI in the assay with UACC-62 melanoma was 13.6 µM; in the assay with RPMI-8226 leukemia it was above 50 µM; in the assay with NCI-H460 lung it was 27.1 µM; in the assay with HL-60(TB) leukemia it was 40.9 µM; in the assay with SK-MEL-28 melanoma, 15.6 µM; in the assay on OVCAR-8 ovarian it was 39 µM. Also, the TGI in the assay on A549 NSCLC amounted to 43.4 µM.
Take `O=C(CSc1ncn[nH]1)C[P+](c1ccccc1)(c1ccccc1)c1ccccc1`: the TGI in the assay on UACC-62 melanoma, in the assay on SF-539 CNS, in the assay with NCI-H460 lung, in the assay on HL-60(TB) leukemia, with SK-MEL-28 melanoma and with OVCAR-8 ovarian was above 100 µM throughout. This compound also displayed a TGI in the assay with A549 NSCLC above 100 µM.
As to `Oc1ccc(O)c(-c2cc(-c3ccc(Cl)cc3)nn2-c2ccccc2)c1`, the GI50 is 2.63 µM in the assay with UACC-62 melanoma; 2.29 µM in the assay with RPMI-8226 leukemia; 31 µM in the assay with SF-539 CNS; 5.97 µM in the assay on NCI-H226 lung; 3.77 µM with NCI-H460 lung; 5.71 µM with HL-60(TB) leukemia. Further, the GI50 in the assay on OVCAR-8 ovarian was 4.51 µM; with A549 NSCLC, 7.56 µM. Besides, the TGI with UACC-62 melanoma is 7.88 µM; in the assay on RPMI-8226 leukemia it was 7.03 µM; in the assay with SF-539 CNS, 52.5 µM; in the assay with NCI-H226 lung, 24.3 µM; with NCI-H460 lung, above 100 µM; in the assay on HL-60(TB) leukemia, 64.8 µM. Moreover, the values for the TGI in the assay with OVCAR-8 ovarian and in the assay with A549 NSCLC were above 100 µM and 31 µM, respectively.
